Assay results from WO2018160794A1, “Epha2-targeted docetaxel -generating liposomes in combination with an agent that impedes regulatory t cell activity for treating cancer” (dated 2018).

What was measured:
MC38 = assay: In vivo antitumor efficacy in MC38 colon cancer model (Example 8); parameters: species or system mouse; conditions: MC38, C57BL6/J mice; days after treatment initiation; Figure 9B
T cells in EMT-6 tumors = assay: FACS of immune cell infiltrate in EMT-6 tumors versus dose-dense and standard docetaxel (Example 6); format: in vivo, mouse; conditions: EMT-6, Example 6
EMT-6 [1] = assay: In vivo antitumor efficacy in EMT-6 model versus free docetaxel (Example 3); parameters: species or system mouse; conditions: EMT-6, Example 3
EMT-6 [2] = assay: In vivo tumor growth inhibition in EMT-6 model versus dose-dense and standard docetaxel (Example 6); parameters: species or system mouse; conditions: EMT-6, Example 6; docetaxel 3.33 mg/kg three times a week (DTX-DD); Figure 7A

In the case of `CC(=O)O[C@@]12CO[C@@H]1C[C@H](O)[C@@]1(C)C(=O)[C@H](O)C3=C(C)[C@@H](OC(=O)[C@H](O)[C@@H](NC(=O)OC(C)(C)C)c4ccccc4)C[C@@](O)([C@@H](OC(=O)c4ccccc4)[C@H]21)C3(C)C` [docetaxel], the median survival (MC38) is reported as 16 days, the “effect on intratumoral immune cell populations” value (T cells in EMT-6 tumors; dose-dense docetaxel (DTX-DD), 3.33 mg/kg three times a week) is reported as “Neither the dose-dense (DTX-DD) nor the weekly (DTX-MTD) docetaxel treatment groups were observed to affect these intratumoral immune cell populations” and the “effect on intratumoral immune cell populations” value (T cells in EMT-6 tumors; weekly docetaxel (DTX-MTD), 10 mg/kg once a week) is reported as “Neither the dose-dense (DTX-DD) nor the weekly (DTX-MTD) docetaxel treatment groups were observed to affect these intratumoral immune cell populations”. For the same compound, the tumor regression (EMT-6 [1]) was “no tumor regression”, the growth arrest (EMT-6 [1]; monotherapy, PD-1 10 mg/kg twice weekly, docetaxel 10 mg/kg q1w) was “minimal growth arrest” and the “tumor growth inhibition (in words)” value (EMT-6 [2]) was “improved growth inhibition relative to DTX-MTD, but it did not recapitulate the inhibition observed in 46scFv-ILs-DTXp3 treatment”.
